Experiments:
[1] = system: Wistar male rats with myocardial infarction (permanent LAD occlusion); experiment: Echocardiography and heart mass after myocardial infarction (LAD ligation); type: in vivo, rat; conditions: MI rats, 25 mg/kg daily by gavage for 2 months starting one week after MI, vs MI vehicle
Method: The goal of the study is to assess urolithin A treatment effect on heart function after myocardial infarction. […] Myocardial infarction (MI) was induced in 6-week old Wistar male rats from groups 1, 2, and 3 (Table 3), by permanent occlusion of Left Anterior Descending coronary artery (ligation was performed at Do).
Rats were anesthetized with an intraperitoneal (IP) injection of Medetomidine (0.5 mg/kg) and ketamine (50 mg/kg), intubated and ventilated at 10 mL/kg tidal volume and 70-80 cycles/min. Body temperature were maintained between 36.5° C. and 37.5° C. via a thermoregulated heating pad connected to a rectal probe. Rats were placed in supine position, chest-shaved and prepared for standard surgical conditions. A left lateral thoracotomy was carefully performed so as to expose the heart. Then, a suture was placed around the LAD (4/0 Silk, Ethicon), around 2 mm below the left atrium and close to the interventricular junction, in order to obtain infarct size (IS) near 40% of the total left ventricular (LV) area. Chest was closed, air was expelled from the rib cage to avoid pneumothorax and quick reanimation was performed using atipamezole hydrochloride (IM, 0.5 mg/ml, Zoetis).
Animals from group 1 were subjected to the same protocol as MI groups. However, after the left lateral thoracotomy exposing the heart, the rib cage were closed without passing the suture thread around LAD.
Urolithin A or vehicle were administered by gavage at 25 mg/kg starting one week after myocardial infraction. Heart and plasma samples were collected at each time point. Ejection Fraction (EF), Fractional Shortening (FS), Isovolumic relaxation time (IVRT) were measured by echocardiography at 1 month and 2 month time points to evaluate heart function. […]
Rats were anesthetized with 4% isoflurane in 50% oxygen-50% air mixture and maintained with 2% isoflurane during the procedure. […] Body temperature was monitored and maintained between 36.5-37.5° C. via a rectal probe connected to the thermoregulated heating pad.
Standard B-mode (Brightness-mode) and M-mode (Motion-mode) images of the heart were obtained in the two-dimensional (2D) parasternal long axis view (PSLA). LV parameters will be measured and calculated as the mean of 3 consecutive cardiac cycles by a single blinded trained operator. • Left Ventricular function LV function is calculated using the LV dimensions parameters previously described. • FS=fractional shortening=[(LVIDd−LVIDs)/LVIDd]*100. It is a calculation based on the difference of dimensions between systole and diastole measured in M-mode. […] It is a calculation based on the difference of volumes between systole and diastole measured in B-mode and M-mode. […]

[2] = system: gene sets (Cellular Components) linked to mitochondrial function in heart tissue; experiment: RNA-seq gene set enrichment analysis of heart sections, MI rats; type: in vivo, rat; conditions: MI+UA vs MI rats, 25 mg/kg PO
Method: Heart sections from rats in the groups described in FIG. 1 (Example 1) have been prepared using a microtome, deparaffinized and RNA extracted using the following kit (RNAeasy FFPE 76504, Qiagen). Upon extraction, RNA was quality controlled with Agilent Fragment Analyzer System.
Library preparation was performed using Strand-specific cDNA library and following the steps here indicated: • rRNA depletion. • mRNA fragmentation. • Random primed cDNA synthesis (strand-specific) • Adapter ligation and adapter specific PCR amplification RNA-seq run was executed with the NovaSeq6000 using S4 flowcells with 2×150 bp.
QC and preprocessing of raw sequencing reads was performed using an in-house QC pipeline. […] High quality RNA-seq read pairs were mapped to the Ensembl rat reference genome
Reads with a minimum PHRED score of 15, a minimum length of 15 bp, and a minimum unqualified percent limit of 40 (40%) were retained for downstream analysis. […]
Gene Set Enrichment Analysis (GSEA) (Subramanian, et al. Proc Natl Acad Sci USA 2005, 102 (43), 15545-50) was performed for characterizing complex relations of gene expression changes with gene ontologies (cellular components), under different biological conditions. […] Gene ranking information is transformed to pathway level to assign statistical significance for each analyzed gene set. […]

Old C57BL/6 mice [3] = experiment: Echocardiography in old mice (age-related heart dysfunction); type: in vivo, mouse; conditions: old mice (26 months), chow diet with urolithin A 50 mg/kg for 2 months
Method: (§1) The goal of the study is to evaluate urolithin treatment effect age-related heart dysfunction. […] Old C57BL/6 mice (26 months) were used as model to reproduce natural decline in heart function with aging. Chow diet with and without urolithin A was administered for 2 months at 50 mg/kg. Post-mortem heart muscles, skeletal muscles, and plasma samples post-mortem were collected at the end of the study. Ejection Fraction (EF), Fractional Shortening (FS) were measured by echocardiography. Muscle contractility was also measured. Analysis of both heart and skeletal muscle function were conducted at the end of the study.

Old C57BL/6 mice [4] = experiment: Skeletal muscle function (muscle contractility) in old mice; type: in vivo, mouse; conditions: old mice (26 months), chow diet with urolithin A 50 mg/kg for 2 months
Method: as §1

[5] = system: heart mitochondria of old C57BL/6 mice; experiment: Transmission electron microscopy of heart mitochondria in old mice; type: in vivo, mouse; conditions: 50 mg/kg by gavage for 2 months, vs old vehicle
Method: (§2) The goal of the study was to evaluate urolithin treatment effect on age-related heart dysfunction. Old C57BL/6 mice (24 months at the end of the study) were used as model to reproduce natural decline in heart function with aging and administered by gavage for 2 months with either Urolithin A at 50 mg/kg (Old UA) or vehicle (Old Vehicle). Young mice (18 weeks-old at the end of the study) were administered with vehicle for 2 months. Post-mortem heart muscles, were collected at the end of the study.
Muscle samples from animals as described in example 2 were fixed in 2% glutaraldehyde solution 0.1 M Sorenson's buffer (pH 7.3). These samples were later postfixed in 1% osmium tetroxide for 8 min [pulse microwaved (MW), 100 watts (W)] and rinsed in distilled H2O (3×150 W 40 s per step). Samples were dehydrated in a graded series of acetone (25%; 50%; 75%; 3× 100%; 150 W 40 seconds per step) before being impregnated with increasing concentrations of epoxy resin (TAAB medium resin) in acetone (25%; 50%; 75%; 3×100%; 300 W 3 min per step). The samples were then embedded in 100% fresh resin and left to polymerize at 60° C. in a conventional oven for a minimum of 24 h.
All resin blocks were trimmed using a razor blade to form a trapezoid block face. Sections were cut in a longitudinal or transverse orientation on an ultramicrotome (Wolf et al., 2019) using a diamond knife. Semithin sections (0.5 μm) were stained with toluidine blue and viewed on a light microscope (LM) to verify orientation of tissue. Ultrathin sections (70 nm) were then cut and picked up onto copper grids. Sections from blocks were stained with 1% uranyl acetate (30 min) and 3% lead citrate (7 min). All sections were examined using a HT7800 120 kV TEM (Hitachi). Digital micrographs were captured using an EMSIS Xarosa CMOS Camera with Radius software.
These samples were later postfixed in 1% osmium tetroxide during 1 h, dehydrated within an increasing concentration of acetone. […]
Individual heart mitochondria from 3 Young vehicle, 3 Old vehicle and 3 Old UA O-AL mice were manually traced in transverse orientations using ImageJ software (NIH) (https://imagej.nih.gov/ij/) and to quantify the following morphological and shape descriptors: area (μm2), perimeter (μm), circularity 4π×(area/perimeter2), aspect ratio ((major axis)/(minor axis)): the aspect ratio being a measure of the length to width ratio, form factor ((perimeter)/(4π×surface)): a measure sensitive to the complexity and the branched appearance of the mitochondria, Feret's diameter (the longest distance (μm) between two points of the mitochondria studied) and minimum Feret diameter (corresponds to the smallest diameter of the mitochondria) (Picard et al., 2012). […]

[6] = system: gene sets (Cellular Components) repressed with aging in heart; experiment: RNA-seq gene set enrichment analysis of heart, old mice; type: in vivo, mouse; conditions: old mice treated with UA 50 mg/kg for 2 months vs old vehicle
Method: as §2
RNA-seq analysis from samples derived from example 3 has been performed as described for example 1.
A Gene set enrichment analysis was performed looking at gene set (i.e., biological pathways) belonging to the category “Cellular Components”.

[7] = system: mitochondrial complex II enzyme SDH; experiment: Succinate dehydrogenase activity staining of heart sections; type: in vivo, mouse; conditions: old mice, 50 mg/kg by gavage for 2 months, vs old vehicle control
Method: as §2
Hearts in OCT were cut into sections of […] using a cryostat. Sections were then incubated in a solution containing nitroblue tetrazolium (1.5 mM), sodium succinate (130 mM), phenazine methosulphate (0.2 mM), and sodium azide (0.1 mM) for 6 min at room temperature. The reaction was stopped by two washes in PBS. Slides were mounted using Fluoromont mounting medium (Thermofisher, 00-4958-02). All samples were processed successively using the same incubation solution ensuring that they underwent the exact same experimental conditions. Images of the tissues were taken with a bright field microscope. The intensity of the staining was analyzed with Image J.

Question: How did the “cardiac hypertrophy, calculated as heart weight over tibia length” value [1] turn out when `O=c1oc2cc(O)ccc2c2ccc(O)cc12` [Urolithin A] was run?
Answer: reduces

Question: And the “diastolic function, measured as isovolumetric relaxation time” value [1]?
Answer: improves

Question: And the “systolic dysfunction measured as Ejection fraction” value [1]?
Answer: significantly improves

Question: And the “systolic dysfunction measured as Fractional shortening” value [1]?
Answer: significantly improves

Question: And the “gene sets repressed with MI (mitochondrial protein-containing complex, respirasome, nucleoids, peroxisomes), normalized enrichment score” value [2]?
Answer: induced

Question: What about the “increase in fractional shortening, after high-workload” value (Old C57BL/6 mice [3]; after high-workload) of the same molecule?
Answer: +39%

Question: What about the “increase in fractional shortening, basally” value (Old C57BL/6 mice [3]; basal) of the same molecule?
Answer: +32%

Question: What about the skeletal muscle function (Old C57BL/6 mice [4]) of the same molecule?
Answer: significantly prevents age-related decline

Question: And the cristae number ([5]; heart mitochondria)?
Answer: significantly increases

Question: What about the cristae volume density ([5]; heart mitochondria) of the same molecule?
Answer: significantly increases

Question: And the “mitophagy events, quantified as number of mitolysosomes” value ([5]; heart)?
Answer: significantly increases

Question: What about the mitochondrial area ([5]; heart, to levels compared to young animals) of the same molecule?
Answer: significantly increased

Question: And the “gene sets repressed with aging (respirasome, sarcolemma), normalized enrichment score” value [6]?
Answer: induced

Question: What about the “SDH enzymatic activity in the heart” value [7] of the same molecule?
Answer: significantly increases

Reference: patent US20260240807A1, “UROLITHINS FOR IMPROVING CARDIAC FUNCTION AND HEALTH” (Amazentis SA, priority 2022, published 2026)
